According to PubChem BioAssay (NCI):
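All cell lines were grown in 96-well plates and treated with compound for 48 hours. GI50 marks 50% less growth. Definition used: TGI = concentration required for complete inhibition of growth.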

Key:
Assay in all cases: DTP human tumour cell line panel, 48 h
[1] = system: MALME-3M melanoma
[2] = system: OVCAR-8 ovarian
[3] = system: SK-MEL-5 melanoma
[4] = system: IGROV1 ovarian
[5] = system: A498 renal
[6] = system: MDA-MB-435
[7] = system: SNB-19 CNS
[8] = system: SF-295 CNS
[9] = system: MOLT-4 leukemia
[10] = system: SK-MEL-28 melanoma
[11] = system: PC-3 prostate
[12] = system: SK-OV-3 ovarian
[13] = system: SF-268 CNS
[14] = system: HOP-92 NSCLC
[15] = system: UACC-62 melanoma
[16] = system: SN12C renal
[17] = system: SK-MEL-2 melanoma
[18] = system: CCRF-CEM leukemia
[19] = system: KM12 colon
[20] = system: HCT-116 colon
[21] = system: A549 NSCLC
[22] = system: SF-539 CNS
[23] = system: M14 melanoma
[24] = system: SNB-75 CNS
[25] = system: HOP-62 NSCLC
[26] = system: T-47D breast
[27] = system: SW-620 colon
[28] = system: OVCAR-5 ovarian
[29] = system: HCC-2998 colon
[30] = system: U251 CNS
[31] = system: HS 578T breast
[32] = system: MCF7 breast
[33] = system: EKVX NSCLC
[34] = system: 786-0 renal
[35] = system: UACC-257 melanoma
[36] = system: NCI-H226 lung
[37] = system: OVCAR-4 ovarian
[38] = system: RPMI-8226 leukemia
[39] = system: LOX IMVI melanoma
[40] = system: NCI-H23 lung
[41] = system: SR leukemia
[42] = system: TK-10 renal
[43] = system: K-562 leukemia
[44] = system: BT-549 breast
[45] = system: HL-60(TB) leukemia
[46] = system: NCI/ADR-RES ovarian
[47] = system: ACHN renal
[48] = system: UO-31 renal
[49] = system: HCT-15 colon
[50] = system: NCI-H522 lung
[51] = system: NCI-H460 lung
[52] = system: HT29 colon
[53] = system: MDA-MB-231 breast
[54] = system: OVCAR-3 ovarian
[55] = system: DU-145 prostate
[56] = system: COLO 205 colon
[57] = system: CAKI-1 renal
[58] = system: RXF 393 renal

Compound: CCN(CC)CCOc1ccc(/C=C2\CC3C4CC=C5C[C@@H](N6CCCC6)CC[C@]5(C)C4CC[C@]3(C)[C@H]2OC(C)=O)cc1OC (some centres not stated)
- GI50 [1]: 579 nM
- TGI [1]: 1240 nM
- GI50 [2]: 1070 nM
- TGI [2]: 3470 nM
- GI50 [3]: 720 nM
- TGI [3]: 1390 nM
- TGI [4]: 1730 nM
- GI50 [5]: 1960 nM
- TGI [5]: 3460 nM
- GI50 [6]: 277 nM
- TGI [6]: 745 nM
- GI50 [7]: 698 nM
- TGI [7]: 3470 nM
- GI50 [8]: 1550 nM
- TGI [8]: 2950 nM
- GI50 [9]: 91 nM
- TGI [9]: 345 nM
- GI50 [10]: 1710 nM
- TGI [10]: 3560 nM
- GI50 [11]: 1130 nM
- TGI [11]: 2510 nM
- GI50 [12]: 2400 nM
- TGI [12]: 6060 nM
- GI50 [13]: 1860 nM
- TGI [13]: 4560 nM
- GI50 [14]: 152 nM
- TGI [14]: 1880 nM
- GI50 [15]: 715 nM
- TGI [15]: 1410 nM
- GI50 [16]: 1190 nM
- TGI [16]: 2640 nM
- GI50 [17]: 3450 nM
- TGI [17]: > 100000 nM
- GI50 [18]: 197 nM
- TGI [18]: 457 nM
- GI50 [19]: 99.7 nM
- TGI [19]: 1160 nM
- GI50 [20]: 132 nM
- TGI [20]: 548 nM
- GI50 [21]: 1640 nM
- TGI [21]: 3670 nM
- GI50 [22]: 597 nM
- TGI [22]: 1200 nM
- GI50 [23]: 133 nM
- TGI [23]: 217 nM
- GI50 [24]: 2210 nM
- TGI [24]: 5100 nM
- GI50 [25]: 899 nM
- TGI [25]: 2270 nM
- GI50 [26]: 1030 nM
- TGI [26]: 2210 nM
- GI50 [27]: 555 nM
- TGI [27]: 1920 nM
- GI50 [28]: 1390 nM
- TGI [28]: 3060 nM
- GI50 [29]: 197 nM
- TGI [29]: 647 nM
- GI50 [30]: 1180 nM
- TGI [30]: 2440 nM
- GI50 [31]: 1030 nM
- TGI [31]: 2320 nM
- GI50 [32]: 1210 nM
- GI50 [33]: 1590 nM
- TGI [33]: 3470 nM
- GI50 [34]: 635 nM
- TGI [34]: 1300 nM
- GI50 [35]: 1910 nM
- TGI [35]: 3920 nM
- GI50 [36]: 1260 nM
- TGI [36]: 3300 nM
- GI50 [37]: 2140 nM
- TGI [37]: 5650 nM
- GI50 [38]: 124 nM
- TGI [38]: 5240 nM
- GI50 [39]: 1030 nM
- TGI [39]: 2400 nM
- GI50 [40]: 1630 nM
- TGI [40]: 3320 nM
- GI50 [41]: 191 nM
- TGI [41]: 444 nM
- GI50 [42]: 1240 nM
- TGI [42]: 2670 nM
- TGI [43]: > 36000 nM
- GI50 [44]: 1800 nM
- TGI [44]: 3520 nM
- GI50 [45]: 639 nM
- TGI [45]: 1770 nM
- GI50 [46]: 570 nM
- TGI [46]: 1930 nM
- GI50 [47]: 791 nM
- TGI [47]: 1560 nM
- GI50 [48]: 2280 nM
- GI50 [49]: 1080 nM
- TGI [49]: 2450 nM
- GI50 [50]: 2350 nM
- GI50 [51]: 1600 nM
- TGI [51]: 4460 nM
- GI50 [52]: 144 nM
- TGI [52]: > 44100 nM
- GI50 [53]: 1730 nM
- TGI [53]: 3250 nM
- GI50 [54]: 773 nM
- TGI [54]: 1840 nM
- GI50 [55]: 1050 nM
- TGI [55]: 6070 nM
- GI50 [56]: 2040 nM
- TGI [56]: 4280 nM
- GI50 [57]: 1250 nM
- TGI [57]: 2990 nM
- GI50 [58]: 815 nM
- TGI [58]: 2770 nM

Compound: COc1ccc(/C=N/C2=C(C#N)C(c3ccccc3)c3c(ccc4ccccc34)O2)cc1 (configuration not stated)
- GI50 [1]: 649 nM
- TGI [1]: 40400 nM
- GI50 [2]: 4070 nM
- TGI [2]: > 100000 nM
- GI50 [3]: 1740 nM
- TGI [3]: 18200 nM
- GI50 [4]: 570 nM
- TGI [4]: 39300 nM
- GI50 [5]: 594 nM
- TGI [5]: 6180 nM
- GI50 [6]: 273 nM
- TGI [6]: 834 nM
- GI50 [7]: 2060 nM
- TGI [7]: 56200 nM
- GI50 [8]: 482 nM
- TGI [8]: 11800 nM
- GI50 [9]: 1750 nM
- TGI [9]: > 100000 nM
- GI50 [10]: 7140 nM
- TGI [10]: 59800 nM
- GI50 [11]: 1220 nM
- TGI [11]: 18800 nM
- GI50 [12]: 4950 nM
- TGI [12]: > 100000 nM
- GI50 [13]: 2850 nM
- TGI [13]: 65300 nM
- GI50 [14]: 1160 nM
- TGI [14]: 18200 nM
- GI50 [15]: 711 nM
- TGI [15]: > 100000 nM
- GI50 [16]: 4230 nM
- TGI [16]: 26200 nM
- GI50 [17]: 3970 nM
- TGI [17]: > 100000 nM
- GI50 [18]: 751 nM
- TGI [18]: > 100000 nM
- GI50 [19]: 1160 nM
- TGI [19]: 35400 nM
- GI50 [20]: 516 nM
- TGI [20]: 19200 nM
- GI50 [21]: 1990 nM
- TGI [21]: > 100000 nM
- GI50 [22]: 1650 nM
- TGI [22]: 10400 nM
- GI50 [23]: 459 nM
- TGI [23]: 9660 nM
- GI50 [24]: 466 nM
- TGI [24]: 4010 nM
- GI50 [25]: 1770 nM
- TGI [25]: 60100 nM
- GI50 [26]: 2410 nM
- TGI [26]: > 100000 nM
- GI50 [27]: 732 nM
- TGI [27]: > 100000 nM
- GI50 [28]: 4530 nM
- TGI [28]: 37700 nM
- GI50 [29]: 3810 nM
- TGI [29]: 31500 nM
- GI50 [30]: 1870 nM
- TGI [30]: 21100 nM
- GI50 [31]: 2150 nM
- TGI [31]: 23800 nM
- GI50 [32]: 586 nM
- TGI [32]: 24500 nM
- GI50 [33]: 5020 nM
- TGI [33]: > 100000 nM
- GI50 [34]: 4480 nM
- TGI [34]: 38700 nM
- GI50 [35]: 23400 nM
- TGI [35]: > 100000 nM
- GI50 [36]: 2170 nM
- TGI [36]: 54800 nM
- GI50 [37]: 8750 nM
- TGI [37]: > 100000 nM
- GI50 [38]: 2660 nM
- TGI [38]: 35300 nM
- GI50 [39]: 2010 nM
- TGI [39]: 22800 nM
- GI50 [40]: 3410 nM
- TGI [40]: > 100000 nM
- GI50 [41]: 713 nM
- TGI [41]: > 100000 nM
- GI50 [42]: 19100 nM
- TGI [42]: > 100000 nM
- GI50 [43]: 370 nM
- TGI [43]: > 100000 nM
- GI50 [44]: 1170 nM
- TGI [44]: 20900 nM
- GI50 [45]: 649 nM
- TGI [45]: 6000 nM
- GI50 [46]: 916 nM
- TGI [46]: > 100000 nM
- GI50 [47]: 4090 nM
- TGI [47]: 54400 nM
- GI50 [48]: 1090 nM
- TGI [48]: 37700 nM
- GI50 [49]: 564 nM
- TGI [49]: 29000 nM
- GI50 [50]: 388 nM
- TGI [50]: 37600 nM
- GI50 [51]: 1370 nM
- TGI [51]: 47100 nM
- GI50 [52]: 702 nM
- TGI [52]: 15300 nM
- GI50 [53]: 2500 nM
- TGI [53]: 22800 nM
- GI50 [54]: 464 nM
- TGI [54]: 10200 nM
- GI50 [55]: 3260 nM
- TGI [55]: 18600 nM
- GI50 [56]: 2360 nM
- TGI [56]: 21200 nM
- GI50 [57]: 457 nM
- TGI [57]: 20400 nM
- GI50 [58]: 1490 nM
- TGI [58]: 7190 nM
